Measured values from EP0883624B1, “TETRAETHER LIPIDS AND LIPOSOMES CONTAINING SAID LIPIDS, AND USE OF THE SAME” (Humatrix AG, priority 1996, dated 1997).

Assay: Capacitance of a black lipid membrane
Format: physicochemical
Settings: Porengröße von 0,8 mm
Source text: Das Überspannen von Poren mit einer Lipidschicht ermöglicht nicht nur Einsatz solcher Systeme bei Separations- und Transportvorgängen (Dialyse, Umkehrosmose etc.), sondern auch im Bereich von Piezo- und Pyroelektrik, Mikrokondensatortechnik, nicht-linearer Optik und Biosensorik. Die Kapazität einer stabilen Black-Lipid-Membran aus TEL ist bei einer Porengröße von 0,8 mm 0,744 µF/cm^2.

With “2,3,2',3'-Tetra-O-dibiphytanyl-di-sn-glycerol-1'-β-gulosyl-1-phosphoryl-3"-sn-glycerols [TEL]” the “Kapazität einer stabilen Black-Lipid-Membran” value was 0,744 µF/cm^2.
